Tests used:
[1] = system: 60 human tumor cell line panel; test: NCI 60 cell line one-dose SRB primary anticancer assay; format: cell-based; conditions: 60 cell lines assay in one dose, 10µM (title; head prints 10.0 mM), 48 h; for inhibition at 10 µM: Homo sapiens, read-out: MGI % (Mean growth inhibition percentage)
786-0 = test: NCI one-dose SRB growth assay; format: cell-based; conditions: Homo sapiens; 786-0 (Renal Cancer), 10^-5 M, 48 h; read-out: % Growth Inhibition (GI %)
In short: (§1)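 Screening used the NCI Drug Evaluation Branch protocol on roughly 60 human cancer cell lines. Compound exposure: 10^-5M, 48 h. Cell mass quantified by sulforhodamine B binding, read by spectrophotometer, reported as % growth compared with untreated control.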

CCRF-CEM = test: NCI one-dose SRB growth assay; format: cell-based; conditions: Homo sapiens; CCRF-CEM (Leukemia), 10^-5 M, 48 h; read-out: % Growth Inhibition (GI %)
MOLT-4 [2] = test: NCI one-dose SRB growth assay; format: cell-based; conditions: Homo sapiens; MOLT-4 (Leukemia), 10^-5 M, 48 h; read-out: % Growth Inhibition (GI %)
In short: as §1

NCI/ADR-RES = test: NCI one-dose SRB growth assay; format: cell-based; conditions: Homo sapiens; NCI/ADR-RES (Ovarian Cancer), 10^-5 M, 48 h; read-out: % Growth Inhibition (GI %)
In short: as §1

OVCAR-4 [3] = test: NCI one-dose SRB growth assay; format: cell-based; conditions: Homo sapiens; OVCAR-4 (Ovarian Cancer), 10^-5 M, 48 h; read-out: % Growth Inhibition (GI %)
In short: as §1

PRMI-8226 = test: NCI one-dose SRB growth assay; format: cell-based; conditions: Homo sapiens; PRMI-8226 (Leukemia), 10^-5 M, 48 h; read-out: % Growth Inhibition (GI %)
In short: as §1

SF-295 = test: NCI one-dose SRB growth assay; format: cell-based; conditions: Homo sapiens; SF-295 (CNS Cancer), 10^-5 M, 48 h; read-out: % Growth Inhibition (GI %)
In short: as §1

UO-31 = test: NCI one-dose SRB growth assay; format: cell-based; conditions: Homo sapiens; UO-31 (Renal Cancer), 10^-5 M, 48 h; read-out: % Growth Inhibition (GI %)
In short: as §1

MOLT-4 [4] = test: NCI five-dose SRB growth assay; format: cell-based; conditions: Homo sapiens; MOLT-4 (Leukemia), 48 h
MDA-MB-435 = test: NCI five-dose SRB growth assay; format: cell-based; conditions: Homo sapiens; MDA-MB-435 (Melanoma), 48 h
SK-MEL-5 = test: NCI five-dose SRB growth assay; format: cell-based; conditions: Homo sapiens; SK-MEL-5 (Melanoma), 48 h
UACC-257 = test: NCI five-dose SRB growth assay; format: cell-based; conditions: Homo sapiens; UACC-257 (Melanoma), 48 h
OVCAR-4 [5] = test: NCI five-dose SRB growth assay; format: cell-based; conditions: Homo sapiens; OVCAR-4 (Ovarian Cancer), 48 h
OVCAR-5 = test: NCI five-dose SRB growth assay; format: cell-based; conditions: Homo sapiens; OVCAR-5 (Ovarian Cancer), 48 h
OVCAR-8 = test: NCI five-dose SRB growth assay; format: cell-based; conditions: Homo sapiens; OVCAR-8 (Ovarian Cancer), 48 h
A498 = test: NCI five-dose SRB growth assay; format: cell-based; conditions: Homo sapiens; A498 (Renal Cancer), 48 h
CAKI-1 = test: NCI five-dose SRB growth assay; format: cell-based; conditions: Homo sapiens; CAKI-1 (Renal Cancer), 48 h
RXF 393 = test: NCI five-dose SRB growth assay; format: cell-based; conditions: Homo sapiens; RXF 393 (Renal Cancer), 48 h
MCF7 = test: NCI five-dose SRB growth assay; format: cell-based; conditions: Homo sapiens; MCF7 (Breast Cancer), 48 h
T-47D = test: NCI five-dose SRB growth assay; format: cell-based; conditions: Homo sapiens, T47D; T-47D (Breast Cancer), 48 h
[6] = system: full panel of about 60 human tumor cell lines; test: NCI five-dose SRB assay, full panel mean; conditions: 48 h; for CC50 / GI50: Homo sapiens; for CC50: 60 cell, read-out: LC50 MG-MID (Full panel mean-graph midpoint); for GI50: read-out: GI50 MG-MID (Full panel mean-graph midpoint); for TGI MG-MID (Full panel mean-graph midpoint): five concentrations
leukemia = test: NCI five-dose SRB assay, subpanel average; conditions: 48 h; for GI50 / CC50: Homo sapiens; for GI50: read-out: GI50 (median growth inhibitory); for CC50: read-out: LC50 (median lethal); for TGI (total growth inhibitory): average over leukemia subpanel, five concentrations
colon cancer = test: NCI five-dose SRB assay, subpanel average; conditions: 48 h; for GI50 / CC50: Homo sapiens; for GI50: read-out: GI50 (median growth inhibitory); for CC50: read-out: LC50 (median lethal); for TGI (total growth inhibitory): average over colon cancer subpanel, five concentrations
CNS cancer = test: NCI five-dose SRB assay, subpanel average; conditions: 48 h; for GI50 / CC50: Homo sapiens; for GI50: read-out: GI50 (median growth inhibitory); for CC50: read-out: LC50 (median lethal); for TGI (total growth inhibitory): average over CNS cancer subpanel, five concentrations
ovarian cancer = test: NCI five-dose SRB assay, subpanel average; conditions: 48 h; for GI50 / CC50: Homo sapiens; for GI50: read-out: GI50 (median growth inhibitory); for CC50: read-out: LC50 (median lethal); for TGI (total growth inhibitory): average over ovarian cancer subpanel, five concentrations
renal cancer = test: NCI five-dose SRB assay, subpanel average; conditions: 48 h; for GI50 / CC50: Homo sapiens; for GI50: read-out: GI50 (median growth inhibitory); for CC50: read-out: LC50 (median lethal); for TGI (total growth inhibitory): average over renal cancer subpanel, five concentrations
prostate cancer = test: NCI five-dose SRB assay, subpanel average; conditions: 48 h; for GI50 / CC50: Homo sapiens; for GI50: read-out: GI50 (median growth inhibitory); for CC50: read-out: LC50 (median lethal); for TGI (total growth inhibitory): average over prostate cancer subpanel, five concentrations
breast cancer = test: NCI five-dose SRB assay, subpanel average; conditions: 48 h; for GI50 / CC50: Homo sapiens; for GI50: read-out: GI50 (median growth inhibitory); for CC50: read-out: LC50 (median lethal); for TGI (total growth inhibitory): average over breast cancer subpanel, five concentrations

Q: With CCn1cc(C(=O)O)c(=O)c2cc(F)c(N3CCN(S(=O)(=O)c4cccc5ccccc45)CC3)cc21 [Compound 7a] as the compound, how does the “PCE (Positive cytotoxic effect: ratio between number of cell lines with percentage growth inhibition from 10 to >100 and total number of cell lines)” value [1] read?
A: 58/58

Q: What about the “RGI % (Range of growth inhibition percentage)” value [1] of the same compound?
A: >100.0 to 40.83%

Q: And the inhibition at 10 µM [1]?
A: 93.8%

Q: What about the inhibition at 10 µM (786-0) of the same compound?
A: 75.7%

Q: What about the inhibition at 10 µM (CCRF-CEM) of the same compound?
A: 87.9%

Q: And the inhibition at 10 µM (MOLT-4 [2])?
A: 91.6%

Q: And the inhibition at 10 µM (NCI/ADR-RES)?
A: 78.7%

Q: What about the inhibition at 10 µM (OVCAR-4 [3]) of the same compound?
A: 76.2%

Q: And the inhibition at 10 µM (PRMI-8226)?
A: 93.5%

Q: And the inhibition at 10 µM (SF-295)?
A: 92.3%

Q: What about the inhibition at 10 µM (UO-31) of the same compound?
A: > 100%

Q: And the GI50 (MOLT-4 [4])?
A: 4.46 µM

Q: What about the GI50 (MDA-MB-435) of the same compound?
A: 3.13 µM

Q: What about the GI50 (SK-MEL-5) of the same compound?
A: 2.24 µM

Q: And the GI50 (UACC-257)?
A: 2.72 µM

Q: And the GI50 (OVCAR-4 [5])?
A: 2.6 µM

Q: And the GI50 (OVCAR-5)?
A: 3.38 µM

Q: And the GI50 (OVCAR-8)?
A: 3.09 µM

Q: And the GI50 (A498)?
A: 2.74 µM

Q: What about the GI50 (CAKI-1) of the same compound?
A: 2.33 µM

Q: And the GI50 (RXF 393)?
A: 3.19 µM

Q: And the GI50 (MCF7)?
A: 2.72 µM

Q: What about the GI50 (T-47D) of the same compound?
A: 3.35 µM

Q: What about the CC50 [6] of the same compound?
A: 95.5 µM

Q: What about the GI50 [6] of the same compound?
A: 3.09 µM

Q: What about the “TGI MG-MID (Full panel mean-graph midpoint)” value [6] of the same compound?
A: 29.51 µM

Q: And the GI50 (leukemia)?
A: 3.48 µM

Q: And the CC50 (leukemia)?
A: > 100 µM

Q: And the “TGI (total growth inhibitory)” value (leukemia)?
A: 63.22 µM

Q: What about the GI50 (colon cancer) of the same compound?
A: 3.39 µM

Q: What about the CC50 (colon cancer) of the same compound?
A: 86.8 µM

Q: What about the “TGI (total growth inhibitory)” value (colon cancer) of the same compound?
A: 67.85 µM

Q: What about the GI50 (CNS cancer) of the same compound?
A: 3.09 µM

Q: What about the CC50 (CNS cancer) of the same compound?
A: > 100 µM

Q: What about the “TGI (total growth inhibitory)” value (CNS cancer) of the same compound?
A: 63.40 µM

Q: What about the GI50 (ovarian cancer) of the same compound?
A: 3.07 µM

Q: And the CC50 (ovarian cancer)?
A: > 100 µM

Q: And the “TGI (total growth inhibitory)” value (ovarian cancer)?
A: 62.35 µM

Q: What about the GI50 (renal cancer) of the same compound?
A: 3.5 µM

Q: And the CC50 (renal cancer)?
A: > 100 µM

Q: What about the “TGI (total growth inhibitory)” value (renal cancer) of the same compound?
A: 63.09 µM

Q: What about the GI50 (prostate cancer) of the same compound?
A: 3.71 µM

Q: And the CC50 (prostate cancer)?
A: > 100 µM

Q: And the “TGI (total growth inhibitory)” value (prostate cancer)?
A: c (Compounds showed values > 100µM)

Q: And the GI50 (breast cancer)?
A: 2.81 µM

Q: And the CC50 (breast cancer)?
A: > 100 µM

Q: What about the “TGI (total growth inhibitory)” value (breast cancer) of the same compound?
A: 38.49 µM

Q: How did the “PCE (Positive cytotoxic effect: ratio between number of cell lines with percentage growth inhibition from 10 to >100 and total number of cell lines)” value [1] turn out when CCn1cc(C(=O)O)c(=O)c2cc(F)c(N3CCN(S(=O)(=O)c4ccc(Cl)cc4)CC3)cc21 [Compound 1a] was run?
A: 56/56

Q: And the “RGI % (Range of growth inhibition percentage)” value [1]?
A: >100.0 to 31.3%

Q: And the inhibition at 10 µM [1]?
A: 75.6%

Q: What about the inhibition at 10 µM (786-0) of the same compound?
A: 76.3%

Q: And the inhibition at 10 µM (CCRF-CEM)?
A: > 100%

Q: What about the inhibition at 10 µM (MOLT-4 [2]) of the same compound?
A: 76.4%

Q: What about the inhibition at 10 µM (NCI/ADR-RES) of the same compound?
A: 31.3%

Q: And the inhibition at 10 µM (OVCAR-4 [3])?
A: 62.3%

Q: What about the inhibition at 10 µM (PRMI-8226) of the same compound?
A: 86.6%

Q: And the inhibition at 10 µM (SF-295)?
A: 96.1%

Q: And the inhibition at 10 µM (UO-31)?
A: 48.9%

Q: And the GI50 (MOLT-4 [4])?
A: 3.83 µM

Q: And the GI50 (MDA-MB-435)?
A: 2.47 µM

Q: What about the GI50 (SK-MEL-5) of the same compound?
A: 1.8 µM

Q: What about the GI50 (UACC-257) of the same compound?
A: 2.16 µM

Q: And the GI50 (OVCAR-4 [5])?
A: 2.2 µM

Q: What about the GI50 (OVCAR-5) of the same compound?
A: 4.25 µM

Q: And the GI50 (OVCAR-8)?
A: 2.8 µM

Q: What about the GI50 (A498) of the same compound?
A: 1.81 µM

Q: What about the GI50 (CAKI-1) of the same compound?
A: 2.75 µM

Q: And the GI50 (RXF 393)?
A: 3.32 µM

Q: What about the GI50 (MCF7) of the same compound?
A: 2.97 µM

Q: What about the GI50 (T-47D) of the same compound?
A: 3.2 µM

Q: And the CC50 [6]?
A: 95.5 µM

Q: What about the GI50 [6] of the same compound?
A: 2.95 µM

Q: What about the “TGI MG-MID (Full panel mean-graph midpoint)” value [6] of the same compound?
A: 29.51 µM

Q: And the GI50 (leukemia)?
A: 2.89 µM

Q: And the CC50 (leukemia)?
A: > 100 µM

Q: What about the “TGI (total growth inhibitory)” value (leukemia) of the same compound?
A: 80.96 µM

Q: And the GI50 (colon cancer)?
A: 3.38 µM

Q: What about the CC50 (colon cancer) of the same compound?
A: 95.2 µM

Q: And the “TGI (total growth inhibitory)” value (colon cancer)?
A: 73.15 µM

Q: And the GI50 (CNS cancer)?
A: 3.57 µM

Q: And the CC50 (CNS cancer)?
A: > 100 µM

Q: And the “TGI (total growth inhibitory)” value (CNS cancer)?
A: 70.26 µM

Q: And the GI50 (ovarian cancer)?
A: 3.16 µM

Q: And the CC50 (ovarian cancer)?
A: > 100 µM

Q: And the “TGI (total growth inhibitory)” value (ovarian cancer)?
A: 54.29 µM

Q: What about the GI50 (renal cancer) of the same compound?
A: 2.93 µM

Q: What about the CC50 (renal cancer) of the same compound?
A: > 100 µM

Q: What about the “TGI (total growth inhibitory)” value (renal cancer) of the same compound?
A: 54.00 µM

Q: And the GI50 (prostate cancer)?
A: 3.21 µM

Q: What about the CC50 (prostate cancer) of the same compound?
A: > 100 µM

Q: What about the “TGI (total growth inhibitory)” value (prostate cancer) of the same compound?
A: 54.11 µM

Q: And the GI50 (breast cancer)?
A: 2.95 µM

Q: And the CC50 (breast cancer)?
A: > 100 µM

Q: And the “TGI (total growth inhibitory)” value (breast cancer)?
A: 54.63 µM

From patent EP2987533B1, “7-substituted piperazin-1-yl fluoroquinolone compounds, their use in the treatment of cancer, pharmaceutical compositions and a method for preparation” (priority 2014, dated 2016)
